Laboratory results published in US20110311621A1, “PHARMACEUTICAL COMPOSITIONS AND METHODS OF DELVERY” (priority 2010, published 2011).

Tests used:
[1] = Aliskiren bioavailability after jejunal administration to conscious rats, compared with oral solution by gavage; settings: AUC relative to aliskiren oral solution (gavage)
Description: (i) Jejunal Administration to Conscious rats
To test the bioavailability of formulations in the jejunum of conscious rats, a specialized rat model was established in which two different cannulas are surgically implanted in male Sprague-Dowley rats (other rats may also be used): • 1—jejunal cannula to bypass the stomach and enable direct formulation administration to the jejunum; and • 2—jugular vein cannula to determine the systematic levels of the administered dextran following jejunal administration.
Rats were allowed to recover for 4 days before the study and were deprived of food for 18 hours before the start of the study. […]
Blood samples were drawn from the jugular vein at an appropriate series of times post jejunal administration and post IV administration, (or post SC administration), plasma was prepared and levels of active ingredient were determined in each sample. The average absolute Bioavailability (aBA) achieved after jejunal administration of the formulation is calculated as described below.
Exposure values, AUC (0-T), are calculated from the area under the serum concentration versus time curve (AUC) and are determined for jejunal and intravenous administration (or SC administration). […]

conscious rats = assay: Effect of CCK-8 on food intake: volume of D-glucose solution consumed by conscious rats; type: in vivo, Sprague Dawley rats; settings: 0.165 mg CCK-8 per rat; 30 min post administration
Procedure: Three of the above formulations (R, S and T) were prepared as follows for use in testing biological activity: Formulation R at levels of 0.165, 0.055, 0.003 mg CCK-8 per rat; Formulation S at 0.09 mg CCK-8 per rat; and Formulation T at 0.09 mg CCK-8 per rat. Thus Formulation R with 0.055 CCK-8 (% w/w) was used at 0.3 and 0.1 ml per rat to give a dose of 0.165 and 0.055 (mg per rat); Formulation R with 0.001 CCK-8 (% w/w) was used at 0.3 ml per rat to give a dose of 0.003 mg per rat; and Formulations S and T with 0.03 CCK-8 (% w/w) were both used at 0.3 ml to give a dose of 0.09 mg per rat.
The effect of oral administration of CCK8 on food intake was achieved by measuring the volume of D-glucose consumed by conscious rats (essentially using the method described by Chun-Min et al., Am. Physio. Soc. 296:R43-R50, 2009). The feeding response of conscious rats to exogenous oral CCK-8 was analyzed by measuring the volume of D-glucose solution consumed. Sprague Dawley rats cannulated at the jejunum (as described in Example 2) were fasted for 18 h. The fasted animals were administrated with a dose range of exogenous CCK8 using three formulations. Three groups served as controls: Rats administered with formulation alone; rats administered with CCK-8 in saline (0.165 mg
The volume of glucose solution consumption was measured at 30 min, 60 min and 90 min post administration. […]

Fold from gavage [1]	Compound	Average volume of glucose solution consumed (± standard error) (conscious rats)	Median volume of glucose solution consumed (conscious rats)
1	COCCCOc1cc(C[C@@H](C[C@H](N)[C@@H](O)C[C@H](C(=O)NCC(C)(C)C(N)=O)C(C)C)C(C)C)ccc1OC [Aliskiren oral solution, aliskiren]	–	–
–	CSCC[C@H](NC(=O)[C@H](Cc1ccc(OS(=O)(=O)O)cc1)NC(=O)[C@@H](N)CC(=O)O)C(=O)NCC(=O)N[C@@H](Cc1c[nH]c2ccccc12)C(=O)N[C@@H](CCSC)C(=O)N[C@@H](CC(=O)O)C(=O)N[C@@H](Cc1ccccc1)C(N)=O [CCK8 in saline, Sincalide]	6.80 ± 0.99 mL	7.90 mL
